# Measurements as given in US20180371018A1, “POLYPEPTIDE COMPOUND, PREPARATION METHOD THEREFOR AND USE THEREOF” (priority 2015, published 2018).
# Legend:
# [1] = test system: Hepatoma 22 (H22) solid tumors; assay: Inhibition of Hepatoma 22 (H22) solid tumors in mice, five-copy peptides; type: in vivo, Mus Musculus Balb/c female mice; conditions: positive medicine, 20 mg/kg, intraperitoneal injection, 1 time/day, 5 days
# [2] = test system: Hepatoma 22 (H22) solid tumors; assay: Inhibition of Hepatoma 22 (H22) solid tumors in mice, peptides with different number of copies; type: in vivo, Mus Musculus Balb/c female mice; conditions: positive medicine, 20 mg/kg, intraperitoneal injection, 1 time/day, 5 days
structure (smiles),measurement,setting,value
"O=c1[nH]cc(F)c(=O)[nH]1 [Peptide 5-FU, 5-fluorouracil]",Average tumor weight,[1],1.135 ± 0.248 g
same,Tumor inhibition rate (%),[1],51.62%
same,Tumor inhibition rate (%),[2],51.62%
same,Tumor weight,[2],1.135 ± 0.248 g
